From US9750253B2, “Pesticidally active substituted pyridyl carboxamides” (Syngenta Participations AG, priority 2013, dated 2017)

Columns and labels:
Format in all cases: in vivo
[1] = system: Myzus persicae (Green Peach Aphid); test: whole plant or invertebrate; conditions: foliar, 144 h, sunflower leaf discs sprayed, 6 days incubation
Experimental: Example B1: Activity Against Myzus persicae (Green Peach Aphid) (Mixed Population, Feeding/Residual Contact Activity, Preventive)
Sunflower leaf discs were placed on agar in a 24-well microtiter plate and sprayed with test solutions. After drying, the leaf discs were infested with an aphid population of mixed ages. After an incubation period of 6 days, samples were checked for mortality and special effects (e.g. phytotoxicity).

Bemisia tabaci = test: whole plant or invertebrate; conditions: foliar, 168 h, cotton leaf discs sprayed, adult white flies, 7 DAT
Experimental: Example B3: Activity Against Bemisia tabaci, (Adults on Cotton, Contact, Preventative)
Cotton leaf discs are placed on agar in a 24-well microtiter plate and sprayed with test solutions. After drying, the leaf discs are infested with adult white flies. After an incubation period of 7 DAT, samples are checked for mortality and special effects (e.g. phytotoxicity).

[2] = system: Myzus persicae (Green Peach Aphid); test: whole plant or invertebrate; conditions: 144 h, pea seedlings, roots in test solution, 6 days after introduction
Description: Example B2: Activity Against Myzus persicae (Green Peach Aphid) (Mixed Population, Systemic/Feeding Activity, Curative)
Pea seedlings, infested with an aphid population of mixed ages, were placed with the roots directly in the test solutions. 6 days after introduction, samples were checked for mortality and special effects on the plant.

[3] = system: Rhopalosiphum padi (Bird Cherry Oat Aphid); test: Activity against Rhopalosiphum padi, barley, seed treatment, mixed population, systemic/feeding activity, preventive
Experimental: Example B5: Activity Against Rhopalosiphum padi (Bird Cherry Oat Aphid, Barley) (Seed Treatment) Mixed Population, Systemic/Feeding Activity, Preventive
The barley seeds were coated with the active ingredients as described in the formulation example F9 above.
A treated barley seed was sown in a 350 ml pot filled with soil. Two weeks after sowing the barley seedling was infested with an aphid population of mixed stages. After an incubation period of seven days the grade of efficacy was estimated and expressed in percentage.
Activity against Rhopalosiphum padi (Bird Cherry Oat Aphid, barley) (seed treatment) mixed population, systemic/feeding activity, preventive: […]

Structure (SMILES) | mortality at 200 ppm [1] [%] | mortality at 200 ppm (Bemisia tabaci) [%] | mortality at 24 ppm [2] [%] | Mortality (%) ([3]; 0.01 mg ai/seed) | Mortality (%) ([3]; 0.03 mg ai/seed) | Mortality (%) ([3]; 0.1 mg ai/seed) | Mortality (%) ([3]; 0.3 mg ai/seed) | Mortality (%) ([3]; 1 mg ai/seed)
Cc1cccnc1-n1ncc(C(=O)N(C)c2cccnc2)c1C [Compound 1.001, 1-(3-methylpyridin-2-yl)-5-methyl-1H-pyrazole-4-carboxylic acid methyl-pyridin-3-yl-amide] | ≥ 80 | > 80 | > 80 | 70 | 85 | 95 | 99 | 99
Cc1cc(Br)cnc1-n1ncc(C(=O)N(C)c2cccnc2)c1C [Compound 1.003, 1-(5-bromo-3-methyl-2-pyridyl)-N,5-dimethyl-N-(3-pyridyl)pyrazole-4-carboxamide] | ≥ 80 | – | – | – | – | – | – | –
Cc1cc(C#N)cnc1-n1ncc(C(=O)N(C)c2cccnc2)c1C [Compound 1.004, 1-(5-cyano-3-methyl-2-pyridyl)-N,5-dimethyl-N-(3-pyridyl)pyrazole-4-carboxamide] | ≥ 80 | – | > 80 | – | – | – | – | –
CCc1cccnc1-n1ncc(C(=O)N(C)c2cccnc2)c1C [Compound 1.025, 1-(3-ethyl-2-pyridyl)-N,5-dimethyl-N-(3-pyridyl)pyrazole-4-carboxamide] | ≥ 80 | – | – | – | – | – | – | –
Cc1cccnc1-n1ncc(C(=O)N(C)c2ccc[n+]([O-])c2)c1C [Compound 1.079, 1-(3-methylpyridin-2-yl)-5-methyl-1H-pyrazole-4-carboxylic acid methyl-pyridin-N-oxide-3-yl-amide] | ≥ 80 | – | > 80 | – | – | – | – | –
Cc1ccc(Cl)nc1-n1ncc(C(=O)N(C)c2ccnnc2)c1C [Compound 1.230, 1-(6-chloro-3-methyl-2-pyridyl)-N,5-dimethyl-N-pyridazin-4-yl-pyrazole-4-carboxamide] | ≥ 80 | > 80 | – | – | – | – | – | –
Cc1c(C(=O)N(C)c2cccnc2)cnn1-c1ncccc1Cl [Compound 877, reference compound] | – | – | – | 0 | 0 | 42 | 63 | 84
